Measurements reported in patent US6054258A, “Photographic elements containing high-boiling esters” (Eastman Kodak Company, priority 1998, dated 2000).
Converted amounts (≈) assume the structure as drawn.

What was measured:
Assay type in all cases: physicochemical
[1] = Viscosity measured using a Brookfield cone/plate viscometer
Protocol: (§1) As noted earlier, high-boiling solvents are desired that have low water solubility and low-to-moderate viscosity and that provide suitably bathochromic dye hues, i.e. hues of suitably long wavelengths. In this example, these properties are evaluated for comparison high-boiling solvents known in the art and for high-boiling solvents of this invention. Results are summarized in Table I. Structures of the comparative high-boiling solvents are provided after Table I.
(§2) Water solubilities were obtained from plots of light scattering at 500 nm of dispersions of the high-boiling solvent in water versus concentration. The light scattering density goes to zero at the solubility limit, when dispersions of high-boiling solvent are diluted. Values of log P calculated using MEDCHEM version 3.54 are also given in Table I and serve as rough indicators of water solubility. Viscosities reported in Table I were measured using a Brookfield cone/plate viscometer. Solvents of high polarity and/or polarizability are often needed to provide suitably bathochromic hues for the types of dyes commonly encountered in color photographic materials. Dye C1, whose structure is provided after Table I, is representative of such dyes. The visible absorption maxima (Lambda max) values for C1, measured with a Perkin Elmer Lambda 2S spectrophotometer, are provided in Table I as measure of solvent polarity/polarizability.

[2] = Visible absorption maximum (Lambda max) of Dye C1 in the solvent, measure of solvent polarity/polarizability; conditions: for Lambda max of Dye C1: Dye C1 in the high-boiling solvent, Perkin Elmer Lambda 2S spectrophotometer; for polarity/polarizability (in words): relative to B1; for Lambda max of Dye C1 (in words): relative to B1 and B4
Protocol: as §1, §2

[3] = Water solubility from light scattering at 500 nm of dispersions of the high-boiling solvent in water
Protocol: as §1, with “invention.” for “invention. Results are summarized in Table I. Structures of the comparative high-boiling solvents are provided after Table I.”
as §2, with “Values of log P calculated using MEDCHEM version 3.54 are also given in Table I and serve as rough indicators of water solubility.” left out

Compound | Viscosity [1] [centipoise] | Lambda max of Dye C1 [2] [nm] | solubility [3] [µg/mL] | Lambda max of Dye C1 (in words) [2] | polarity/polarizability (in words) [2]
O=C(OCCCc1ccccc1)c1ccccc1 [A1] | 15 | 673 | 5.5 (≈ 22.9 µM) | relatively close to those of B1 and B4 | 
CC(C)(COC(=O)c1ccccc1)Cc1ccccc1 [A2] | 99 | 668 |  | relatively close to those of B1 and B4 | 
Cc1ccc(C(=O)OCCCc2ccccc2)cc1 [A3] | 22 | 670 | 3.5 (≈ 13.8 µM) | relatively close to those of B1 and B4 | 
CCCCOC(=O)c1ccccc1C(=O)OCCCC [B1, dibutyl phthalate] | 17 | 674 | 9.4 (≈ 33.8 µM) |  | 

More lines, main results first:

Viscosity [1] [centipoise] | Lambda max of Dye C1 [2] [nm] | solubility [3] [µg/mL] | Lambda max of Dye C1 (in words) [2] | Compound | polarity/polarizability (in words) [2]
6 | 661 |  |  | CCCCC(CC)COC(=O)C1CCCCC1 (stereo not drawn) [B3] | reduced polarity/polarizability relative to B1
9 | 658 | 0.8 (≈ 2.54 µM) |  | CCCCOC(=O)CCCCCCCCC(=O)OCCCC [B2] | reduced polarity/polarizability relative to B1
14 | 674 | 10 (≈ 44.2 µM) |  | O=C(OCCc1ccccc1)c1ccccc1 [B4] | 
